Test results reported in patent US20240125678A1, “COMPOUND, CELLULAR VESICLE STAIN, AND METHOD FOR FLUORESCENT STAINING OF CELLULAR VESICLES” (National University Corporation Tokai National Higher …, priority 2021, published 2024).

Experiments:
milk exosomes [1] = assay: Calibration curve in exosome detection; settings: 0.3 μM, milk exosomes 0.1 to 1 ng per well, fetal bovine serum/phosphate buffer
[2] = test system: cellular vesicles of living B16F10 cells; assay: Specificity 1: staining of cellular vesicles of living versus fixed (dead) cells; assay type: cell-based, mouse; settings: B16F10, 0.3 μM, mixed fixed (dead) and living cells
[3] = test system: cellular vesicles of B16F10 cells; assay: Specificity 2: comparison with another cellular vesicle staining agent; assay type: cell-based, mouse; settings: Compound 1 3 μM without washing, ExoSparkler Mem Dye-Red 1 μL/mL with washing
Experimental: Compound 1 was used for fluorescent staining of intracellular vesicles. The procedure is illustrated below. • (1) 3×10^4 of B16F10 cells were plated in a glass bottom dish and cultured for 24 hours. • (2) Compound 1 was added to the culture medium to have the final concentration of 3 μM. • (3) Measurement was performed by using the fluorescence microscope. Note that the measurement was performed with excitation at 470 nm.
Comparative example 1 is the same as Example 18 except that, instead of Compound 1, 1 μL/mL of ExoSparkler Mem Dye-Red (340-09671 (Dojindo Laboratories)) was added to the culture medium, the culture medium was aspirated off after the addition of ExoSparkler Mem Dye-Red, and a new culture medium was added for washing. Note that the measurement was performed with excitation at 540 nm.

[4] = test system: cellular vesicles of keratinocyte cells (PSVK1); assay: Fluorescent staining of cellular vesicles in keratinocyte cells (PSVK1); assay type: cell-based, human; settings: 0.3 μM, excitation 470 nm
Experimental: Compound 1 was used to fluorescently stain cellular vesicles of keratinocyte cells (PSVK1). The procedure is illustrated below. • (1) PSVK1 cells (obtained from National Institute of Biomedical Innovation, Health and Nutrition, Cell Bank) were plated in a glass bottom dish and cultured for 24 hours. […] Note that the measurement was performed with excitation at 470 nm.

milk exosomes [5] = assay: Fluorescent staining of exosomes; settings: 0.3 μM in phosphate buffer
[6] = test system: cellular vesicles / autophagosomes of B16F10 cells; assay: Detection of autophagosomes using a PIKfyve inhibitor; assay type: cell-based, mouse; settings: 3 μM
Experimental: An endosome-derived intracellular vesicle formation inhibitor (PIKfyve inhibitor) was used to detect autophagosomes. The procedure is illustrated below. • (1) 3×10^4 of B16F10 cells were plated in a glass bottom dish and cultured for 24 hours. • (2) Compound 1 was added to have the final concentration of 3 μM. • (3) Measurement was performed by using a fluorescence microscope. Note that the measurement was performed with excitation at 470 nm. • (4) PIKfyve inhibitor (HY-13228 (MedChemExpress)) was then added to the culture medium to have the final concentration of 10 μM, which was cultured for 1 hour. • (5) Measurement was performed by using the fluorescence microscope. • (6) PIKfyve inhibitor-containing culture medium was aspirated off, and washing operation was performed twice with a new culture medium, which was cultured with another new culture medium for 3 hours. • (7) Measurement was performed by using the fluorescence microscope.

[7] = test system: labeled milk exosomes in HEK293A cells; assay: Incorporation of labeled exosomes into cells; assay type: cell-based, human
[8] = test system: cellular vesicles of HEK293 cells; assay: Fluorescent staining of cellular vesicles in HEK293 cells; assay type: cell-based, human; settings: 0.3 μM, excitation 470 nm
Experimental: Compound 1 was used to fluorescently stain cellular vesicles of HEK293 cells. The procedure is illustrated below. • (1) HEK293A cells (ThermoFisher) were plated in a glass bottom dish and cultured for 24 hours. […] Note that the measurement was performed with excitation at 470 nm.

[9] = test system: cellular vesicles of mouse malignant melanoma cells B16F10; assay: Fluorescent staining of intracellular vesicles with Compound 1 and anti-CD63 antibody; assay type: cell-based
[10] = test system: cellular vesicles of B16F10 cells; assay: Specificity 3: staining in the presence of foreign substances (mouse dung); assay type: cell-based; settings: B16F10 cells mixed with mouse dung suspension; Compound 1 0.3 μM; CellMask reagent 1 μL
Experimental: Intracellular vesicles were fluorescently stained by Compound 1 in the presence of foreign substances. The procedure is illustrated below. • (1) 100 mg of mouse dung was collected, and the collected dung was suspended in 10-fold volume (1 mL) of phosphate buffer. • (2) B16F10 cells were detached using trypsin EDTA (NACALAI TESQUE) and collected, and 1×10^4 cells were suspended in 100 μL of phosphate buffer and mixed with 10 μL of the mouse dung suspension of (1) . • (3) The suspension of the cells and the […] was spread on a glass bottom dish, and 300 μM of Compound 1 was added to have the final concentration of 0.3 μM. • (4) Measurement was performed by using the fluorescence microscope. Note that the measurement was performed with excitation at 470 nm.
Comparative example 2 is the same as Example 19 except that, instead of Compound 1, 1 μL of CellMask reagent (C10045 (ThermoFisher)) was added to the suspension of the cells and the dung. Note that the measurement was performed with excitation at 540 nm.

[11] = test system: incorporation of labeled melanosomes into keratinocyte cells; assay: Inhibition of incorporation of labeled melanosomes into cells; assay type: cell-based; settings: inhibitor final concentration 10 μM, 12 hours, melanosomes labeled with Compound 1, excitation 488 nm
Experimental: Incorporation of melanosomes into cells was measured in the presence of a melanosome uptake inhibitor. […] As the melanosome uptake inhibitor, 6-shogaol (192-16161 (Fujifilm Wako)) was used. • (13) After 12 hours, the cells were washed twice with 100 μL of phosphate buffer. • (14) A plate reader (GroMax Multi (Promega)) was used to measure the labeled melanosomes. […]
Comparative Example 4 is the same as Example 29 except that the measurement with the plate reader was performed for absorbance at 450 nm.

| SMILES | fluorescence intensity versus amount of added milk exosomes (milk exosomes [1]) | staining of cellular vesicles of living cells versus dead cells [2] | specificity of fluorescent staining to cellular vesicles [3] | fluorescent staining of cellular vesicle of PSVK1 cell [4] | fluorescence with milk exosomes added (milk exosomes [5]; 10 ng milk exosomes, excitation 302 nm) | fluorescence without milk exosomes (Comparative example 3) (milk exosomes [5]; no milk exosome added) | fluorescent staining of PIKfyve dependent cellular vesicles ([6]; before/after PIKfyve inhibitor 10 μM 1 hour) | fluorescent staining of autophagosome membrane ([6]; cultured 3 hours after removal of PIKfyve inhibitor) | incorporation of exosomes labeled with the compound into cells ([7]; HEK293A cells, 12 hours after addition) | conjugation with exosomes (overlap with ExoSparkler Mem Dye-Red fluorescence) ([7]; milk exosomes stained 5 minutes with 0.3 μM) | fluorescent staining of cellular vesicle of HEK293 cell [8] | overlap of compound fluorescence with fluorescence of the antibody conjugated with CD63 ([9]; 0.3 μM, fixed, anti-CD63 antibody excited at 540 nm) | fluorescent staining of cellular vesicles ([9]; final concentration 0.3 μM, 5 minutes, excitation 470 nm) | specificity of fluorescent staining in the presence of foreign substances [10] | incorporation of labeled melanosomes into keratinocyte cells [11] |
| --- | --- | --- | --- | --- | --- | --- | --- | --- | --- | --- | --- | --- | --- | --- | --- |
| CN(C)c1ccc(CCCN(C)C2CCc3cc(OCCNc4ccc([N+](=O)[O-])c5nonc45)ccc32)cc1 (stereo not drawn) [Compound 1] | the fluorescence intensity increased depending on the amount of externally added milk exosomes | fluorescently stains cellular vesicles of living cells | high specificity to cellular vesicles | can fluorescently stain | conjugates with exosomes that are cellular vesicles and emits fluorescence | no fluorescence was emitted | can also fluorescently stain the PIKfyve dependent cellular vesicles | the autophagosome membrane enclosing the melanosome was fluorescently stained | are incorporated into cells | specifically conjugates with the exosomes | can fluorescently stain | overlap each other | can fluorescently stain cellular vesicles | can specifically fluorescently stain cellular vesicles |  |
| CCCCC/C=C/C(=O)CCc1ccc(O)c(OC)c1 [melanosome uptake inhibitor, 6-shogaol] |  |  |  |  |  |  |  |  |  |  |  |  |  |  | incorporation of the labeled melanosomes into keratinocyte cells is inhibited |
